Consider 6 molecules from patent US6406870B2, “Methods and compositions for modulating heterotypic E-cadherin interactions with T lymphocytes” (The Brigham and Women's Hospital, Inc., priority 1994, dated 2002).

Test [1] has as its system IEL adhesion to 16E6.A5 epithelial cells. The test is described as follows: IEL adhesion to 16E6.A5 epithelial cell monolayers. In kind it is cell-based, human. The conditions noted are these: epithelial cell monolayers pretreated with cytokine. The protocol: Monolayers of adherent cells were grown in flat bottomed 96-well Linbro tissue culture plates. 10^4 adherent cells in 100 μl complete media were added per well and allowed to grow for two to three days until they reached confluence. Just prior to the addition of IEL or transfected COS 7 cells, the adherent cell monolayers were washed with assay media. To label IEL and COS-7 cells, 25 μg of 2′,7′-bis-(2-carboxyethyl)-5 (and -6)-carboxyfluorescein (BCECF-AM, Molecular Probes, Inc., Eugene, Oreg.) was diluted in 5 μl DMSO and added to a suspension of 5×10^6/ml IEL or COS-7 cells in complete media. The cells were incubated at 37° C. for 25 minutes then washed twice in assay media (PBS containing 1 mM CaCl2, 2 mM MgCl2 and 10 mM HEPES). After washing, 50,000 labeled IEL or COS-7 cells in 100 μl of assay media were added to the adherent cell monolayers. IEL or COS-7 cells were allowed to settle onto adherent cell monolayers for 25 or 40 min. at 37° C. Unbound cells were removed by flicking media from the plate. Bound cells were detected using a Fluorescence plate reader (IDEXX Co., Portland, Me.). If antibody blocking was performed, the IEL, COS-7 cells, epithelial cell monolayers, or L-M monolayers were pre-incubated with a 1:250 dilution of ascites fluid or 10 μg/ml of purified mAb for five minutes at 37° C. prior to encounter with the second cell type. At least four replicates were performed. The % cells bound was calculated by reading the fluorescence units obtained after unbound cells were washed off, dividing this number by the input fluorescence units and multiplying by 100. […] In adhesion assays where divalent cations were varied, the IEL were washed with Ca^++ and Mg^++ free Hank's balanced salt solution (HBSS) and pre-equilibrated with HBSS containing the indicated concentrations of MgCl2, MnCl2, or CaCl2 for 10 min. at 37° C. prior to incubation with 16E6.A5 monolayers which had been washed with Ca^++ and Mg^++ free HBSS. Disruption of T84 cell intercellular tight junctions.
The 16E6.A5 cell line was derived by immortalization of the 76N normal epithelial cell line through transfection of the E6 and E7 genes of human papilloma virus (by V. Band, Tufts University, publically available). Monolayers of these adherent cells are grown in flat-bottomed 96-well Linbro tissue culture plates. […] Bound cells are detected using a Fluorescence plate reader (IDEXX Co., Portland Me.). […] The % cells bound is calculated by reading the fluorescence units obtained after unbound cells are washed off and dividing this number by the input fluorescence units obtained after adding 50,000 cells/well and multiplying by 100. Serial dilutions of labeled cells have shown that as few as 1000 cells can be detected in the linear range.

The subject of test [2] is homotypic E-cadherin adhesion. Conditions: soluble recombinant protein produced in insect cells; cited from earlier work.
Test [3] concerns integrin expression on IEL lines. Put plainly: FACS analysis of integrin expression on cultured IEL. Format: cell-based, human. Conditions: culture of IEL lines with TGF-β1. The text has this: Human intestinal tissue was obtained from fatal accident organ donors or from adult patients undergoing resection for colorectal carcinoma, from sections at least 10 cm away from macroscopically detectable lesions. IEL were isolated as described previously (Davies M. D. J. et al. (1981) Gut 22:481; Parker C. et al. (1992) Proc. Natl. Acad. Sci. USA 89:1924). once isolated, the IEL were stimulated with phytohemagglvtinin-P (PHA:Difco) and irradiated feeder cells (80% peripheral blood mononuclear cells and 20% JY lymphoblastoid cells) in Yssel's medium (Yssel H. et al. (1984) J. Immunol. Methods 72:219) containing 2 nM recombinant interleukin (IL)-2 (gift of Ajinomoto, Kawasaki, Japan), 4% (vol/vol) conditioned medium (Brenner M. et al. (1987) J. Immunol. 138:1502), 4% (vol/vol) fetal calf serum (Hyclone), and 50 AM 2-mercaptoethanol at 10% Co2. […] Two different anti-CD8 mAb (OKT8, CD8α; and T8/2T85H7, CD8β) were used to discriminate between expression of the CD8 αα homodimer and the CD8 αβ heterodimer. In agreement with previously reported data (Jarry A. et al. (1990) Eur. J. of Immunol. 20(5):1097), 10% of the CD8^+ cells expressed the homodimer. Thus, the lines were thought to be highly purified IEL preparations. Long term culture of the 032891 and 390I IEL lines was maintained by intermittent restimulation with PHA and irradiated feeder cells. In single color FACS analysis, the long term 032891 cell line was 99% CD3^+, 99% T cell receptor αβ positive, and 99% CD8 αβ positive. The 390I cell line was 99% CD3^+, 99% T cell receptor αβ positive, and 99% CD8 αβ positive and 6% CD4 positive. […]
FACS analysis was performed by suspending 2.5×10^5 cells in 100 μl of staining buffer (PBS, 1% BSA, 4% human serum, 0.02% NaN3) containing saturating concentrations of mAbs and incubating for 1 hr. at 4° C. […] Biotin-conjugated mAbs were used to stain the second molecule which was visualized by PE-conjugated streptavidin (Becton Dickinson & Co., Mountain View, Calif. Viable cells were analyzed using the FACScan or FACSort flow cytometer (Becton Dickinson & Co.).
In general terms: In flow cytometry, cells or beads pass a laser one at a time.

In the case of IFN-γ: interferon, cytokine, the “effect on IEL-to-epithelial cell adhesion” value (“effect” for short) in test [1] is listed as “increased adhesion”.
Still for that read-out and setting: then IL-1B: interleukin, cytokine, with “no effect”.
Regarding “Recombinant human E-cadherin: recombinant human E-cadherin containing nearly the entire extracellular domain, produced in insect cells (Herrenknecht and Kemler)”, the “blocking of homophilic E-cadherin mediated cell-cell binding” value in test [2] was “failed to block”.
As to “TGF-β1: transforming growth factor-beta 1”, in test [3], the “expression of α^Eβ7 on IEL lines” value is listed as “dramatically up-regulated”; the “expression of α^Lβ2 on IEL lines” value is “down regulated”; the “expression of β1 and its associated α chains on IEL lines” value was “little effect”.
Turning to TNF-α, the “effect” value in test [1] is recorded as “no effect”.

B1: IL-4: interleukin, cytokine (protein, UniProt P05112 25-153, looked up)
Interleukin-4: HKCDITLQEIIKTLNSLTEQKTLCTELTVTDIFAASKNTTEKETFCRAATVLRQFYSHHEKDTRCLGATAQQFHRHKQLIRFLKRLDRNLWGLAGLNSCPVKEANQSTLENFLERLKTIMREKYSKCSS
Turning to B1, the “effect” value in test [1] is listed as “no effect”.
